According to patent publication US8507464B2, “Phosphoramidate alkylator prodrugs” (Threshold Pharmaceuticals, Inc., priority 2005, dated 2013):
Like-named read-outs stand apart in the source and are kept apart here.

Legend:
[1] = Plasma stability (Table 2B)
[2] = test system: H460 cell line; experiment: Anti-proliferation assay, hypoxia vs normoxia (Table 1A); conditions: for IC50: Homo sapiens; for HCR P: ratio of IC50 in normoxia and hypoxia
[3] = in vivo; conditions: CD-1, mouse, 50 mg/kg
[4] = test system: mouse (MLM) liver microsomal proteins; type: in vitro ADME; conditions: Table 2B
[5] = test system: HT29 cells; experiment: Antiproliferation assay (Alamar Blue), anoxia vs air; conditions: Homo sapiens, HT-29, 2 h
[6] = type: physicochemical; conditions: glassy carbon, Ag/AgCl reference; for Reduction Potentials, 100 mV/sec: scan rate 100 mV/sec; for Reduction Potentials, 10,000 mV/sec: scan rate 10,000 mV/sec
[7] = test system: NCI-H460 cells; experiment: Antiproliferation assay - oxygen dependence; type: cell-based, human
Source text: . […] The calculated IC50 values (μM) are tabulated in Table Y1 (H460 cells) or Table Y2 (HT29 cells) below.

[8] = test system: HT29; experiment: Anti-proliferation assay, hypoxia vs normoxia (Table 1B); conditions: for IC50: Homo sapiens
[9] = in vivo
[10] = test system: NCI-H460 cells; experiment: Antiproliferation assay (Alamar Blue), anoxia vs air
[11] = test system: human H460 cells; experiment: Clonogenic survival assay, hypoxia vs normoxia (Table 1A); conditions: for IC90: Homo sapiens
[12] = test system: HCT116; experiment: Anti-proliferation assay, hypoxia vs normoxia (Table 1B); conditions: for IC50: Homo sapiens
[13] = test system: MES-SA cells; experiment: Antiproliferation assay (Alamar Blue), anoxia vs air; conditions: Homo sapiens, 2 h
[14] = test system: NCI-H460 cells; experiment: Clonogenic assay - oxygen dependence; conditions: Homo sapiens
[15] = test system: H460 lung carcinoma spheroids; experiment: Spheroid model, clonogenic survival; conditions: Homo sapiens, NCI-H460, 2 h, read-out: IC90 H460 Spheroid 10% O2
[16] = NCI-H460, read-out: Hypoxia P (proliferation IC50)
[17] = NCI-H460, read-out: Normoxia P (proliferation IC50)
[18] = Homo sapiens, NCI-H460, read-out: IC50 in H460 cells, 0.1% O2
[19] = Homo sapiens, NCI-H460, read-out: IC50 in H460 cells, 0.6% O2
[20] = Homo sapiens, NCI-H460, read-out: IC50 in H460 cells, 1% O2
[21] = Homo sapiens, NCI-H460, read-out: IC50 in H460 cells, 10% O2
[22] = Homo sapiens, NCI-H460; read-out: IC50 in H460 cells, Air
[23] = Homo sapiens, NCI-H460; read-out: IC50 in H460 cells, N2
[24] = HT-29, read-out: HT29 P H (proliferation IC50, hypoxia)
[25] = HT-29, read-out: HT29 P N (proliferation IC50, normoxic)
[26] = CD-1, Balb/c for Compound 1, mouse, iv
[27] = Homo sapiens, NCI-H460, 2 h, read-out: IC50 H460 Air, air, 2 h exposure
[28] = Homo sapiens, NCI-H460, 2 h, read-out: IC50 H460 Anoxia, anoxia, 2 h exposure
[29] = Homo sapiens, NCI-H460, read-out: IC50 in H460 cells, Air
[30] = Homo sapiens, NCI-H460, read-out: IC50 in H460 cells, N2
[31] = Homo sapiens, NCI-H460, read-out: IC50 in H460 cells, 0.3% O2

SMILES	Plasma stability (% at 30 min) [1] [%]	IC50 [2, 16] [µM]	IC50 [2, 17] [µM]	HCR P [2]	Metabolic stability (MLM) (% at 30 min) [4] [%]	IC50 ([5]; read-out: IC50 HT29 Air) [µM]	IC50 ([5]; read-out: IC50 HT29 Anoxia) [µM]	Reduction Potentials, 100 mV/sec [6] [mV]	Reduction Potentials, 10,000 mV/sec [6] [mV]	IC50 [7, 18] [µM]	IC50 [7, 19] [µM]	IC50 [7, 20] [µM]	IC50 [7, 21] [µM]	IC50 [7, 22] [µM]	IC50 [7, 23] [µM]	HT29 HCR P [8]	IC50 [8, 24] [µM]	IC50 [8, 25] [µM]	IC50 [10, 27] [µM]	IC50 [10, 28] [µM]	also measured
CN(CCCl)P(=O)(OCc1cnc([N+](=O)[O-])n1C)N(C)CCCl [Compound 5]	100	4.5	3.5	1	5	> 100	10	−606	−634	1	1	10	5	40	0.03	>10	10	> 100	6	0.05	Plasma stability, value in parentheses ([1]; parentheses not explained): (85) %; AUC ([3]; ip): 57400 ng·h/mL; Cmax ([3]; ip): 3000 ng/mL; Tmax ([3]; ip): 5 min; half-life ([3]; ip): 2.56 min; AUC ([3]; iv): 270000 ng·h/mL; Cmax ([3]; iv): 16900 ng/mL; Tmax ([3]; iv): 5 min; half-life ([3]; iv): 4.67 min; Metabolic stability (MLM), value in parentheses ([4]; parentheses not explained): (20) %; clearance ([9]; CD-1 (Compounds 5, 23, 36), Balb/c (Compound 1), mouse, iv): 185 mL/min/kg; Cmax ([9]; CD-1, Balb/c for Compound 1, mouse, ip): 3000 ng/mL; AUC [9, 26]: 4500 ng·h/mL; Cmax [9, 26]: 16900 ng/mL; Vd [9, 26]: 1.25 L/kg; half-life ([9]; CD-1, Balb/c for Compound 1, mouse, iv, t ½, intravenous administration in mice, mice): 4.8 min; AUC ([9]; CD-1, mouse, ip): 1000 ng·h/mL
Cn1c(COP2(=O)N(CCCl)CCCN2CCCl)cnc1[N+](=O)[O-] [Compound 16]	–	1.6	100	60	40	–	–	–	–	10	10	–	100	> 100	0.3	–	–	–	> 100	1.6	IC90 ([11]; NCI-H460, read-out: Hypoxia C (clonogenic IC90)): 0.2 µM; IC90 ([11]; NCI-H460, read-out: Normoxia C (clonogenic IC90)): 35 µM; HCR C ([11]; ratio of IC90 in normoxia and hypoxia): 175
O=[N+]([O-])c1ccc(COP(=O)(NCCCl)NCCCl)s1 [Compound 26]	85	0.1	35	350	56	–	–	–	–	3	6	5	10	–	–	–	–	–	35	0.1	IC50 [7, 29]: 40 µM; IC50 [7, 30]: 0.3 µM
O=[N+]([O-])c1ccc(COP(=O)(NCCBr)NCCBr)s1 [Compound 34]	–	< 0.01	1.8	>180	28	57	0.8	−584	−663	–	–	–	–	–	–	70	0.8	57	1.8	0.01	Plasma stability (at 20 min) ([1]; at 20 min): 85%; HCT116 HCR [12]: 77; IC50 ([12]; HCT-116, read-out: HCT116 P H (proliferation IC50, hypoxia)): 0.13 µM; IC50 ([12]; HCT-116, read-out: HCT116 P N (proliferation IC50, normoxic)): 10 µM; IC50 ([13]; read-out: IC50 MES-SA Air): 10 µM; IC50 ([13]; read-out: IC50 MES-SA Anoxia): 0.13 µM; IC50 [7, 31]: 1 µM; IC50 [7, 29]: 5 µM; IC50 [7, 30]: 0.01 µM
Cn1c(COP2(=O)N(CCBr)CCCN2CCBr)cnc1[N+](=O)[O-] [Compound 35]	85	0.075	50	625	56	> 100	1.8	–	–	–	5	40	–	50	0.05	–	–	–	50	0.075	IC90 ([14]; NCI-H460, read-out: IC90 H460 0.6% O2): 3 µM; IC90 ([14]; NCI-H460, read-out: IC90 H460 Air): 30 µM; IC90 ([14]; NCI-H460, read-out: IC90 H460 N2): 0.5 µM; IC50 ([13]; read-out: IC50 MES-SA Air): 100 µM; IC50 ([13]; read-out: IC50 MES-SA Anoxia): 1 µM; IC50 [7, 31]: 6 µM; IC50 ([10]; read-out: IC50 H460 Air, air, 2 h exposure): 55 µM; IC90 [15]: 22 µM
